Measured values as given in patent US20080275058A1, “N-Substituted-1H-Quinoline-2,4-Diones, Preparation Method Thereof, And Pharmaceutical Composition Containing The Same” (KOREA RESEARCH INSTITUTE OF CHEMICAL TECHNOLOGY, priority 2005, published 2008).
Where two headings read alike, the source gives them in different places.

Legend:
[1] = biological target: T1, Human serotonin 5-HT6 receptor (Homo sapiens, UniProt P50406); assay: [3H]LSD binding assay on cloned 5-HT6 receptor membranes; details: for binding affinity at 5-HT6 receptor labeled by [3H]LSD, in words: comment on Table 2
T1 construct: made in house; host or cells: insect Sf21 cells (baculovirus vector BacPAK8)
T1 sequence (P50406 whole entry): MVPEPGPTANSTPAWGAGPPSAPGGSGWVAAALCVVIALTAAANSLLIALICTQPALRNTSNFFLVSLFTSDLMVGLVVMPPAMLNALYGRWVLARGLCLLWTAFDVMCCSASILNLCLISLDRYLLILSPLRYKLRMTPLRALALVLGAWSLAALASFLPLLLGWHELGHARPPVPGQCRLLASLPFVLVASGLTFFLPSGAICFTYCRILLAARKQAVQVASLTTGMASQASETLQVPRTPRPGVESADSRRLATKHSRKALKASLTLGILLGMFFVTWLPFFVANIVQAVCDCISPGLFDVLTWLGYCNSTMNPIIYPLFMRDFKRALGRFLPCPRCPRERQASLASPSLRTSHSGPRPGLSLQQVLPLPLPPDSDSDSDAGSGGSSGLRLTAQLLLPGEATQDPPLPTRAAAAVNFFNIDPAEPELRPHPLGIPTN

[2] = biological target: 5-HT6 receptors (Homo sapiens, UniProt P50406); assay: Adenylyl cyclase activity (cAMP accumulation) in HeLa cells transfected with human 5-HT6 receptor; assay type: cell-based; details: for increase in cAMP level inhibited (FIG. 1): 5-HT-induced cAMP increase
Chain of 5-HT6 receptors (P50406 whole entry): as above

[3] = biological target: T2, 5-HT1a (Homo sapiens, UniProt P08908); assay: Radioligand binding, 5-HT1a ([3H]8-OH-DPAT); details: Table 4; [3H]8-OH-DPAT 0.5 nM; read-out: Binding affinity, IC50 (nM) 5-HT1a
T2 construct: purchased Euroscreen/BioSignal Packard Inc
T2 sequence (P08908 1-422): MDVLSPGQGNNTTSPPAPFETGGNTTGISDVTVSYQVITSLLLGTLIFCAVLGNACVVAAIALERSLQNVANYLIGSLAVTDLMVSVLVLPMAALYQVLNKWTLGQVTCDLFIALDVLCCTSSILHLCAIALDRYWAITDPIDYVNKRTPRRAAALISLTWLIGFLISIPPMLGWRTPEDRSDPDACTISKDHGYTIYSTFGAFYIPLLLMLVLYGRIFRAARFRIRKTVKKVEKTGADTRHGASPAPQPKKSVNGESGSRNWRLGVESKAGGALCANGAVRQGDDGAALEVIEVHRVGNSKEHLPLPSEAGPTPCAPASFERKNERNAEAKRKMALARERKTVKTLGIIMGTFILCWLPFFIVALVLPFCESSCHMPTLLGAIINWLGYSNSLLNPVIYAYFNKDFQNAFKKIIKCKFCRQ
How it was run: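 Per manufacturer method: commercial membranes incubated with radioligand and test compound, bound label counted.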

[4] = biological target: T3, 5-HT7 (Homo sapiens, UniProt P34969); assay: Radioligand binding, 5-HT7 ([3H]LSD); details: Table 4; [3H]LSD 3 nM; read-out: Binding affinity, IC50 (nM) 5-HT7
T3 construct: purchased Euroscreen/BioSignal Packard Inc
T3 sequence (P34969 whole entry): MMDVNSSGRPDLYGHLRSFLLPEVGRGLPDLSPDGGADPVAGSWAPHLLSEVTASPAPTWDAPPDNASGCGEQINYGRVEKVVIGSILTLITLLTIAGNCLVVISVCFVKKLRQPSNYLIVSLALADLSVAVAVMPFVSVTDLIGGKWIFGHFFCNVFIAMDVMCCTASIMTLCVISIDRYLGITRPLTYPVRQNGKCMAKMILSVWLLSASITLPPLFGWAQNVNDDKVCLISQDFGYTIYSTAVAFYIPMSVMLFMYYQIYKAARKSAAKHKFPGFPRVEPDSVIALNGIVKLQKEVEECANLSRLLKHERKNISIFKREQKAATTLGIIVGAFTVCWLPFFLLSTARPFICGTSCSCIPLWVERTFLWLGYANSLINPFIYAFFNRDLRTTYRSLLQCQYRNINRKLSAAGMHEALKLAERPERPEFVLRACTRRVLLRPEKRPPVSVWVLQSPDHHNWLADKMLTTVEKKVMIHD

[5] = biological target: T4, hD3 (Homo sapiens, UniProt P35462); assay: Radioligand binding, dopamine D3 ([3H]spiperone); details: Table 4; [3H]spiperone 1 nM; read-out: Binding affinity, IC50 (nM) D3
T4 construct: purchased BioSignal Packard Inc., Montreal, Canada
T4 sequence (P35462 whole entry): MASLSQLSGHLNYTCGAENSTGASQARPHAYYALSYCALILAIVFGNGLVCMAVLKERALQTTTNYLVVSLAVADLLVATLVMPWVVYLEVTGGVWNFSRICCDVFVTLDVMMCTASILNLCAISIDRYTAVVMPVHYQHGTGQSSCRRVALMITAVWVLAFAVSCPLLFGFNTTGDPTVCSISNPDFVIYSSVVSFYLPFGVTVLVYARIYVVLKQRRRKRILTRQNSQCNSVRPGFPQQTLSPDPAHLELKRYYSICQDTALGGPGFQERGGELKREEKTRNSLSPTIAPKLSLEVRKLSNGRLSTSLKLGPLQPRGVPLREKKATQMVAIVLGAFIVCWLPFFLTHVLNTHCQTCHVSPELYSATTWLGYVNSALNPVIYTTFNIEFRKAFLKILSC
How it was run: (§1)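 IC50 values come from nonlinear fits of three displacement experiments, each using 7-8 test concentrations in duplicate. D2L and D3 membranes were labelled with 1 nM [3H]spiperone, and D4.2 with 0.06 nM [3H]YM-09151-2. All assays used pH 7.4 Tris buffers, with the D3 buffer adding 120 mM NaCl, KCl and CaCl2.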

[6] = tested on: mice; assay: Rotarod deficit in mice; assay type: in vivo, mouse
How it was run: (§2)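 Compounds suspended in 3% Tween 80 were given p.o. to mice 60 min before testing. Rotarod deficit (%) was the proportion of animals falling within 1 min from a 1 inch knurled rod turning at 6 rpm, scored at 60, 90 and 120 min after dosing.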

[7] = Rotarod deficit in mice; assay type: in vivo, mouse; details: mouse, in vivo, po, unit printed as image, read-out: TD50 (median neurotoxic dose)
How it was run: as §2

[8] = biological target: D1 (Homo sapiens, UniProt P21728); assay: Radioligand binding, dopamine D1; details: Table 4; read-out: Binding affinity, IC50 (nM) D1
Chain of D1 (P21728 whole entry): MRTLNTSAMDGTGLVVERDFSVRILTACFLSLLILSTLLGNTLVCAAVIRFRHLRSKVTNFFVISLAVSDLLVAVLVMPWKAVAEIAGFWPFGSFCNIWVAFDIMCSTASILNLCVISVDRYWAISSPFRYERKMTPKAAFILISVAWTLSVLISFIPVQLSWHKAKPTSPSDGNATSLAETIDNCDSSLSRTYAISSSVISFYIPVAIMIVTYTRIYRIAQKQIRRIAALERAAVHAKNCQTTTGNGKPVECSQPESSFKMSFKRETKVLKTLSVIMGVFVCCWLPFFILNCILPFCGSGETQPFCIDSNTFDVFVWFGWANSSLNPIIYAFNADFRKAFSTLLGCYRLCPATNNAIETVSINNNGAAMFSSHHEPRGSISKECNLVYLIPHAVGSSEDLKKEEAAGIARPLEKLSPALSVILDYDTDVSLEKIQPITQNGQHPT

[9] = biological target: T5, hD4.2 receptor (Homo sapiens, UniProt P21917, DEL265-296); assay: Radioligand binding, dopamine D4 ([3H]YM-09151-2); details: Table 4; [3H]YM-09151-2 0.06 nM; read-out: Binding affinity, IC50 (nM) D4
T5 construct: purchased BioSignal Packard Inc., Montreal, Canada
T5 sequence (P21917 with tags, fused parts or gaps DEL265-296): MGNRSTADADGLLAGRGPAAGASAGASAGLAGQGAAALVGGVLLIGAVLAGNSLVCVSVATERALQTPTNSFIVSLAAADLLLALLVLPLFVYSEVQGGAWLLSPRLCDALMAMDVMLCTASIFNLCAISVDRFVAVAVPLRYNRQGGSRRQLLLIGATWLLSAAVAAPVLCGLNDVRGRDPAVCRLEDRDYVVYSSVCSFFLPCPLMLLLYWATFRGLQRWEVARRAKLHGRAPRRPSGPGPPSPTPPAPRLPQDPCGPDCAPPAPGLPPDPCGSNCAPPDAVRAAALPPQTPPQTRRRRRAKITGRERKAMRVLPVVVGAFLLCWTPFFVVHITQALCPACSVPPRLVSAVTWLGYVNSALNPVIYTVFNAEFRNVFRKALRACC
How it was run: as §1

[10] = biological target: T6, hD2L (Homo sapiens, UniProt P14416); assay: Radioligand binding, dopamine D2 ([3H]spiperone); details: Table 4; [3H]spiperone 1 nM; read-out: Binding affinity, IC50 (nM) D2
T6 construct: purchased BioSignal Packard Inc., Montreal, Canada
T6 sequence (P14416 whole entry): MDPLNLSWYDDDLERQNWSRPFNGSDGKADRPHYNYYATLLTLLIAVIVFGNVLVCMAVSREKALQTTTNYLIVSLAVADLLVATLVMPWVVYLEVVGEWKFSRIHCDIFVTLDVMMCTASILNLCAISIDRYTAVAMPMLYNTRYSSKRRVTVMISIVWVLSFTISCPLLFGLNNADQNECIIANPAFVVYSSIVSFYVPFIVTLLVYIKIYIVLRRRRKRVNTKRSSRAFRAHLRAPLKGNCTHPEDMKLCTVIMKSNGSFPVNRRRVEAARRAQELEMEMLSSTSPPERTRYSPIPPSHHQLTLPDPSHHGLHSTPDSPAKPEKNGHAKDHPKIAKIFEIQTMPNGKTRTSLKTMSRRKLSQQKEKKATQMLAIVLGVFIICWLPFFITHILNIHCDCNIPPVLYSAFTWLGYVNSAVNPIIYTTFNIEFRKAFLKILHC
How it was run: as §1

[11] = Table 2, 1.87 nM [3H]LSD, 37 C, 60 min, read-out: IC50 (nM), binding affinity to the 5-HT6 receptor
[12] = Table 4, read-out: Binding affinity, IC50 (nM) 5-HT6
[13] = HeLa, read-out: inhibition of 0.3 μM serotonin (5-HT)-induced increase in cAMP levels

SMILES | IC50 [1, 11] [nM] | IC50 [1, 12] [nM] | binding affinity at 5-HT6 receptor labeled by [3H]LSD, in words [1] | increase in cAMP level inhibited (FIG. 1) [2] | IC50 [3] [nM] | IC50 [4] [nM] | IC50 [5] [nM] | Rotarod deficit (%) ([6]; 200 p.o. (dose unit not given)) | Rotarod deficit (%) ([6]; 300 p.o. (dose unit not given)) | Rotarod deficit (%) ([6]; 400 p.o. (dose unit not given)) | TD50 at 120 min [7] [mg/kg] | melting point [°C] | IC50 [8] [nM] | IC50 [9] [nM] | IC50 [10] [nM] | other results
COc1ccc(C2(C)C(=O)c3c(N4CCNCC4)cc(Cl)cc3N(Cc3ccccc3)C2=O)cc1 (racemic) [Example 13, 1-Benzyl-7-chloro-3-(4-methoxy-phenyl)-3-methyl-5-piperazin-1-yl-1H-quinoline-2,4-dione] | 0.9 | 0.9 | significant affinities | inhibited | 1360 | 9000 | 345 | 0 | 0 | 0 | > 400 | 120 to 123 | 3590 | > 10000 | > 10000 | 
CC1(c2ccc(O)cc2)C(=O)c2c(N3CCNCC3)cc(Cl)cc2N(Cc2ccccc2)C1=O (racemic) [Example 14, 1-Benzyl-7-chloro-3-(4-hydroxy-phenyl)-3-methyl-5-piperazin-1-yl-1H-quinoline-2,4-dione] | 1 | 1 | significant affinities | inhibited | > 10000 | 3570 | 1500 | 0 | 0 | 0 | > 400 | 197 to 200 | 6820 | > 10000 | > 10000 | IC50 [2]: 0.0287 µM; inhibition at 0.001 µM [2, 13]: 10%; inhibition at 0.01 µM [2, 13]: 22%; inhibition at 0.1 µM [2, 13]: 81%; inhibition at 1 µM [2, 13]: 100%; inhibition at 10 µM [2, 13]: 100%
